Experiment: Compound was tasted for its sweet potency, expressed with relative to sucrose

Structure (SMILES)	Sweetness potency
O/N=C/C1=CCCC1	55
O/N=C/C1=CCCCC1	55
O/N=C/C1=CC=CCC1	90
CC1=CCC(/C=N/O)=CC1	500
C/C=C(C)/C=N/O	40

The next lines start with the values.

Sweetness potency	Structure (SMILES)
140	C/C=C(C)/C(C)=N/O
200	O/N=C/C1=CCC=CC1
225	COCC1=CCC(/C=N/O)=CC1

From ChEMBL document CHEMBL1123970, “Ab initio molecular electrostatic potentials of perillartine analogues: implications for sweet-taste receptor recognition” (J Med Chem, 1988)
